Where only a bound is given, the exact number is not on record here.

For one test, the target named is KRas G12D (Homo sapiens, UniProt P01116, G12D). As to the kind of experiment: biochemical.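 Also: TR-FRET displacement binding assay on KRas, read after a one-hour incubation at room temperature, IC50 fitted from percent-of-control values.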
The target of another test is KRas G12V (Homo sapiens, UniProt P01116, G12V). Description: biochemical.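 Also: KRas binding measured by TR-FRET displacement at room temperature, IC50 fitted from percent of control values.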
Chain of KRas G12V (P01116 1-169 isoform P01116-2 G12V): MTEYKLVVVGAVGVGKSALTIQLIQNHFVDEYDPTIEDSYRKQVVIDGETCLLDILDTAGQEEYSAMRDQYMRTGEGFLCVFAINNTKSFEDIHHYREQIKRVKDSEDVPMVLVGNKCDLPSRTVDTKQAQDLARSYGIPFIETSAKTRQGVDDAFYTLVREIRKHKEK
The target of the next test is KRas G12R (Homo sapiens, UniProt P01116, G12R). Description: biochemical.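 Also: TR-FRET displacement assay of compound binding to KRas, read after one hour at room temperature, potency from a four-parameter fit of percent-of-control values.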
Chain of KRas G12R (P01116 1-169 isoform P01116-2 G12R): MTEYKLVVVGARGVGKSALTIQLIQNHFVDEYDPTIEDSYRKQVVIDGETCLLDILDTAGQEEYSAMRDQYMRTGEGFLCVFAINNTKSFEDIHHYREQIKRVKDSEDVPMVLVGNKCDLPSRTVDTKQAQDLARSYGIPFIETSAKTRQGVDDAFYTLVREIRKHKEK
The target of a further test is KRas G12A (Homo sapiens, UniProt P01116, G12A). As to the kind of experiment: biochemical.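 Also: binding to KRas measured by TR-FRET displacement after one hour at room temperature, IC50 from a four-parameter fit of percent-of-control values.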
Chain of KRas G12A (P01116 1-169 isoform P01116-2 G12A): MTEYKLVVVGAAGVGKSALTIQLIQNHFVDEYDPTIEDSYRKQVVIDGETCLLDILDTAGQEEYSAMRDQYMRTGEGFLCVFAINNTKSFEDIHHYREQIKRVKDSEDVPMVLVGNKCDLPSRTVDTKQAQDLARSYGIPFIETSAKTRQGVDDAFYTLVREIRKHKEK
The target of a further test is KRas G12S (Homo sapiens, UniProt P01116, G12S). As to the kind of experiment: biochemical.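 Also: TR-FRET displacement binding to KRas, read after one hour incubation at room temperature, IC50 from four-parameter fit of percent of control.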
Chain of KRas G12S (P01116 1-169 isoform P01116-2 G12S): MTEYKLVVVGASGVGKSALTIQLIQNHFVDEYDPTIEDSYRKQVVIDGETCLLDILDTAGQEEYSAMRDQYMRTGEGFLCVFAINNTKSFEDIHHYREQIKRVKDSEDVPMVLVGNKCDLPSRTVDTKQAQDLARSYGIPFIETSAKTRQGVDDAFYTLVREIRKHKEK
The target in the next test is KRas G12C (Homo sapiens, UniProt P01116, G12C). As to the kind of experiment: biochemical.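 Also: binding to KRas assessed by TR-FRET displacement after one hour incubation at room temperature, potency fitted from percent-of-control values.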
Chain of KRas G12C (P01116 1-169 isoform P01116-2 G12C): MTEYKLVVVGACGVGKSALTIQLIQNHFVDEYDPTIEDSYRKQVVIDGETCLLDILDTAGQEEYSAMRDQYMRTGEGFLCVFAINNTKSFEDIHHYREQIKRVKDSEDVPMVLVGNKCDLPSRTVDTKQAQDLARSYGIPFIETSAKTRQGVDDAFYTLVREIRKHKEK
The target of a further test is KRas WT (Homo sapiens, UniProt P01116). Description: biochemical.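 Also: binding to KRas read as TR-FRET displacement after a one-hour room-temperature incubation, IC50 derived from percent-of-control values.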
Chain of KRas WT (P01116 1-169 isoform P01116-2): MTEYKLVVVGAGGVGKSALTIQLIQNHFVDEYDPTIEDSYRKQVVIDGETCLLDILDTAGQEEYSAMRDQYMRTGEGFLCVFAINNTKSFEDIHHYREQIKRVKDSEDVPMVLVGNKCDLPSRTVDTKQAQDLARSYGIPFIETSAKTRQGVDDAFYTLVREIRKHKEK
In the next test the test system is pERK in MKN1 cells. Description: Inhibition of KRas phosphorylation of ERK (Cisbio HTRF pERK assay). The settings on record: Homo sapiens, MKN-1, 3 h, read-out: Inhibition (HTRF IC50) of KRas-mediated Phosphorylation of ERK, MKN1. Background: TR-FRET usually uses a lanthanide donor and a delayed reading to cut background.
Another test deals with pERK in PSN1 cells. Described as above. The following applies: Homo sapiens, PSN1, 3 h, read-out: Inhibition (HTRF IC50) of KRas-mediated Phosphorylation of ERK, PSN1.
The next test deals with pERK in ASPC1 cells. The description is as above. The following applies: Homo sapiens, ASPC1, read-out: Inhibition (HTRF IC50) of KRas-mediated Phosphorylation of ERK, AsPC-1.
In the next test the test system is pERK in H727 cells. The test is described as above. The following applies: Homo sapiens, NCI-H727, read-out: Inhibition (HTRF IC50) of KRas-mediated Phosphorylation of ERK, H727.
The test system of another test is pERK in HCT116 cells. Described as above. The following applies: Homo sapiens, HCT-116, read-out: Inhibition (HTRF IC50) of KRas-mediated Phosphorylation of ERK, HCT116.

Chain of KRas G12D (P01116 1-169 isoform P01116-2 G12D): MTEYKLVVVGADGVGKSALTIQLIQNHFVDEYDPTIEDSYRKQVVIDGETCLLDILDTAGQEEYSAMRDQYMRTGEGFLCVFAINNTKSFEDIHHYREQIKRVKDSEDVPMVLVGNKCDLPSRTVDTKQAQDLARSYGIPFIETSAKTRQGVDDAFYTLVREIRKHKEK

In the case of `CCc1c(F)ccc2cc(O)cc(-c3ncc4c(N5CCC[C@]6(CC(=O)N6)C5)nc(OCC5(CN6CCCC6)CC5)nc4c3F)c12` [Example 319, (S)-6-(7-(8-ethyl-7-fluoro-3-hydroxynaphthalen-1-yl)-8-fluoro-2-((1-(pyrrolidin-1-ylmethyl)cyclopropyl)methoxy)pyrido[4,3-d]pyrimidin-4-yl)-1,6-diazaspiro[3.5]nonan-2-one], the IC50 against KRas G12D, on KRas G12V, against KRas G12R, on KRas G12A, on KRas G12S and against KRas G12C was at most 2 nM each time. The IC50 (in general, the point on the concentration scale where inhibition reaches its midpoint) against KRas WT is at most 2 nM; in the test on pERK in MKN1 cells it was 120 nM; with pERK in PSN1 cells, at least 10000 nM; in the test on pERK in ASPC1 cells it was 433 nM; with pERK in H727 cells, 808 nM; with pERK in HCT116 cells it was 6360 nM.

Regarding `CCc1c(F)ccc2cc(O)cc(-c3ncc4c(N5CCC[C@]6(C5)NC(=O)NC6=O)nc(OCC5(CN6CCCC6)CC5)nc4c3F)c12` [Example 322, (R)-7-(7-(8-ethyl-7-fluoro-3-hydroxynaphthalen-1-yl)-8-fluoro-2-((1-(pyrrolidin-1-ylmethyl)cyclopropyl)methoxy)pyrido[4,3-d]pyrimidin-4-yl)-1,3,7-triazaspiro[4.5]decane-2,4-dione], the concentration for half-maximal inhibition (IC50) is at most 2 nM against KRas G12D; at most 2 nM against KRas G12V; at most 2 nM at KRas G12R; at most 2 nM against KRas G12C; at most 2 nM at KRas WT; 32 nM in the test with pERK in MKN1 cells. The 50% inhibitory concentration (IC50) with pERK in PSN1 cells was found to be 9090 nM; with pERK in ASPC1 cells it was 484 nM; in the test with pERK in H727 cells, 255 nM; in the test on pERK in HCT116 cells, 300 nM.

As to `O=C1NCC2(CCCN(c3nc(OC[C@@]45CCCN4C[C@H](F)C5)nc4c(F)c(-c5cc(O)cc6ccc(F)c(Br)c56)ncc34)C2)N1` (stereo partly drawn) [Example 409, 7-(7-(8-bromo-7-fluoro-3-hydroxynaphthalen-1-yl)-8-fluoro-2-(((2R,7aS)-2-fluorohexahydro-1H-pyrrolizin-7a-yl)methoxy)pyrido[4,3-d]pyrimidin-4-yl)-1,3,7-triazaspiro[4.5]decan-2-one], the IC50 on KRas G12D was at most 2 nM; against KRas G12V, at most 2 nM; at KRas G12R, at most 2 nM; in the test on pERK in MKN1 cells, 94 nM; in the test with pERK in PSN1 cells, at least 10000 nM; with pERK in ASPC1 cells, 398 nM. For the same molecule, the figures for the half-maximal inhibitory concentration (IC50) in the test on pERK in H727 cells and in the test with pERK in HCT116 cells were 593 nM and 1180 nM, respectively.

Turning to `O=C1NC(=O)C2(CCCN(c3nc(OC[C@@]45CCCN4C[C@H](F)C5)nc4c(F)c(-c5cc(O)cc6ccc(F)c(Br)c56)ncc34)C2)N1` (stereo partly drawn) [Example 410, 7-(7-(8-bromo-7-fluoro-3-hydroxynaphthalen-1-yl)-8-fluoro-2-(((2R,7aS)-2-fluorohexahydro-1H-pyrrolizin-7a-yl)methoxy)pyrido[4,3-d]pyrimidin-4-yl)-1,3,7-triazaspiro[4.5]decane-2,4-dione], the 50% inhibitory concentration (IC50) against KRas G12D was at most 2 nM; against KRas G12V it was at most 2 nM; against KRas G12R it was at most 2 nM; in the test with pERK in MKN1 cells it was 157 nM; in the test on pERK in PSN1 cells, 3150 nM; with pERK in ASPC1 cells, 365 nM. Moreover, the half-inhibitory concentration (IC50) in the test with pERK in H727 cells is 603 nM; with pERK in HCT116 cells, 602 nM.

Take `O=C1NC(=O)[C@]2(CCCN(c3nc(OC[C@@]45CCCN4C[C@H](F)C5)nc4c(F)c(-c5cc(O)cc6ccc(F)c(Cl)c56)ncc34)C2)N1` [Example 413, (R)-7-(7-(8-chloro-7-fluoro-3-hydroxynaphthalen-1-yl)-8-fluoro-2-(((2R,7aS)-2-fluorohexahydro-1H-pyrrolizin-7a-yl)methoxy)pyrido[4,3-d]pyrimidin-4-yl)-1,3,7-triazaspiro[4.5]decane-2,4-dione]: the 50% inhibitory concentration (IC50) against KRas G12D was at most 2 nM; against KRas G12V, at most 2 nM; on KRas G12R, 3 nM; in the test on pERK in MKN1 cells, 33 nM; in the test on pERK in PSN1 cells, 2530 nM; in the test with pERK in ASPC1 cells, 479 nM. In addition, the IC50 in the test on pERK in H727 cells was 408 nM; with pERK in HCT116 cells, 484 nM.

`NS(=O)(=O)CC1CCCN(c2nc(OC[C@@]34CCCN3C[C@H](F)C4)nc3c(F)c(-c4cc(O)cc5ccc(F)c(Cl)c45)ncc23)C1` (stereo partly drawn) [Example 414, 1-(1-(7-(8-chloro-7-fluoro-3-hydroxynaphthalen-1-yl)-8-fluoro-2-(((2R,7aS)-2-fluorotetrahydro-1H-pyrrolizin-7a(5H)-yl)methoxy)pyrido[4,3-d]pyrimidin-4-yl)piperidin-3-yl)methanesulfonamide]: the 50% inhibitory concentration (IC50) at KRas G12D is at most 2 nM; at KRas G12V it was at most 2 nM; against KRas G12R, 4 nM; in the test on pERK in MKN1 cells it was 32 nM; in the test on pERK in PSN1 cells, 3480 nM; in the test with pERK in ASPC1 cells, 1330 nM. In addition, the figures for the IC50 with pERK in H727 cells and in the test with pERK in HCT116 cells were 269 nM and 514 nM, respectively.

`O=C1NC[C@]2(CCCN(c3nc(OC[C@@]45CCCN4C[C@H](F)C5)nc4c(F)c(-c5cc(O)cc6ccc(F)c(Cl)c56)ncc34)C2)N1` [Example 415, (S)-7-(7-(8-chloro-7-fluoro-3-hydroxynaphthalen-1-yl)-8-fluoro-2-(((2R,7aS)-2-fluorohexahydro-1H-pyrrolizin-7a-yl)methoxy)pyrido[4,3-d]pyrimidin-4-yl)-1,3,7-triazaspiro[4.5]decan-2-one]: the IC50 on KRas G12D is at most 2 nM; against KRas G12V it was 40 nM; at KRas G12R it was 3 nM; in the test on pERK in MKN1 cells it was 46 nM; in the test with pERK in PSN1 cells, at least 10000 nM; with pERK in ASPC1 cells it was 548 nM. Moreover, the IC50 with pERK in H727 cells came out at 903 nM; in the test on pERK in HCT116 cells, 2560 nM.

With `OCC1COCCN(c2nc(OC[C@@]34CCCN3C[C@H](F)C4)nc3c(F)c(-c4cc(O)cc5ccc(F)c(Cl)c45)ncc23)C1` (stereo partly drawn) [Example 420, 5-chloro-6-fluoro-4-(8-fluoro-2-(((2R,7aS)-2-fluorohexahydro-1H-pyrrolizin-7a-yl)methoxy)-4-(6-(hydroxymethyl)-1,4-oxazepan-4-yl)pyrido[4,3-d]pyrimidin-7-yl)naphthalen-2-ol], the IC50 on KRas G12D is 3 nM; on KRas G12V, at most 2 nM; against KRas G12R it was 4 nM; in the test with pERK in MKN1 cells, 56 nM; in the test on pERK in PSN1 cells, at least 10000 nM; in the test with pERK in ASPC1 cells it was 859 nM. The concentration for half-maximal inhibition (IC50) in the test with pERK in H727 cells came out at 366 nM; with pERK in HCT116 cells, 1310 nM.

Turning to `Cc1c(F)ccc2cc(O)cc(-c3ncc4c(N5CCCC(CS(N)(=O)=O)C5)nc(OC[C@@]56CCCN5C[C@H](F)C6)nc4c3F)c12` (stereo partly drawn) [Example 461, 1-(1-(8-fluoro-7-(7-fluoro-3-hydroxy-8-methylnaphthalen-1-yl)-2-(((2R,7aS)-2-fluorohexahydro-1H-pyrrolizin-7a-yl)methoxy)pyrido[4,3-d]pyrimidin-4-yl)piperidin-3-yl)methanesulfonamide], the concentration for half-maximal inhibition (IC50) on KRas G12D was at most 2 nM; against KRas G12V it was at most 2 nM; on KRas G12R it was at most 2 nM; in the test with pERK in MKN1 cells it was 18 nM; with pERK in PSN1 cells it was 3760 nM; with pERK in ASPC1 cells it was 1150 nM. The IC50 with pERK in H727 cells worked out at 239 nM; with pERK in HCT116 cells it was 172 nM.

Source of the values: patent US12398154B2, “Azaquinazoline pan-KRas inhibitors” (Mirati Therapeutics, Inc., priority 2020, dated 2025).
